Assay results taken from US12552825B2 (Zikani Therapeutics, Inc., priority 2019, dated 2026).
In brackets after ≈: the same amount, converted by molar mass.

Columns and labels:
Type in all cases: cell-based
E. coli MP-4 = assay: MIC determination by CLSI broth dilution, E. coli MP-4; conditions: Escherichia coli, MP4, CLSI broth dilution; strain MP-4
P. aeruginosa MP-3 = assay: MIC determination by CLSI broth dilution, P. aeruginosa MP-3; conditions: Pseudomonas aeruginosa, MP3, strain MP-3
K. pneumoniae MP-546 = assay: MIC determination by CLSI broth dilution, K. pneumoniae MP-546; conditions: Klebsiella pneumoniae, MP546, CLSI broth dilution; strain MP-546
A. baumannii MP-15 = assay: MIC determination by CLSI broth dilution, A. baumannii MP-15; conditions: Acinetobacter baumannii, MP15, strain MP-15, read-out: MIC A. baumanii MP-15
S. aureus MP-12 = assay: microbe, parasite or virus in culture; conditions: Staphylococcus aureus, MP12, read-out: MIC S. aureus MP-12

Structure (SMILES) | MIC (E. coli MP-4) [µg/mL] | MIC (P. aeruginosa MP-3) [µg/mL] | MIC (K. pneumoniae MP-546) [µg/mL] | MIC (A. baumannii MP-15) [µg/mL] | MIC (S. aureus MP-12) [µg/mL]
CO[C@]1(C)C[C@@H](C)CN(C)[C@@H](CCCN(C)C)COC(=O)C(C)(C)C(=O)[C@H](C)[C@H]1O[C@@H]1O[C@H](C)C[C@H](N(C)C)[C@H]1O [Compound 6, (3S,6R,8R,9R,10R)-9-(((2S,3R,4S,6R)-4-(dimethylamino)-3-hydroxy-6-methyltetrahydro-2H-pyran-2-yl)oxy)-3-(3-(dimethylamino)propyl)-8-methoxy-4,6,8,10,12,12-hexamethyl-1-oxa-4-azacyclotridecane-11,13-dione] | < 4 | > 32 | < 4 | > 32 | > 32
CNC[C@H]1COC(=O)C(C)(C)C(=O)[C@H](C)[C@@H](O[C@@H]2O[C@H](C)C[C@H](N(C)C)[C@H]2O)[C@](C)(OC)C[C@@H](C)CN1C [Compound 9, (3S,6R,8R,9R,10R)-9-(((2S,3R,4S,6R)-4-(Dimethylamino)-3-hydroxy-6-methyltetrahydro-2H-pyran-2-yl)oxy)-8-methoxy-4,6,8,10,12,12-hexamethyl-3-((methylamino)methyl)-1-oxa-4-azacyclotridecane-11,13-dione] | 4 to 32 (≈ 7.36 to 58.9 µM) | > 32 | 4 to 32 (≈ 7.36 to 58.9 µM) | > 32 | > 32
CO[C@]1(C)C[C@@H](C)CN(C)[C@@H](CCCN(C)C(C)C)COC(=O)C(C)(C)C(=O)[C@H](C)[C@H]1O[C@@H]1O[C@H](C)C[C@H](N(C)C)[C@H]1O [Compound 11, (3S,6R,8R,9R,10R)-9-(((2S,3R,4S,6R)-4-(dimethylamino)-3-hydroxy-6-methyltetrahydro-2H-pyran-2-yl)oxy)-3-(3-(isopropyl(methyl)amino)propyl)-8-methoxy-4,6,8,10,12,12-hexamethyl-1-oxa-4-azacyclotridecane-11,13-dione] | < 4 | > 32 | < 4 | > 32 | 4 to 32 (≈ 6.52 to 52.1 µM)
CO[C@]1(C)C[C@@H](C)CN(C)[C@@H](CN(C)C(=O)CN(C)C)COC(=O)C(C)(C)C(=O)[C@H](C)[C@H]1O[C@@H]1O[C@H](C)C[C@H](N(C)C)[C@H]1O [Compound 13, 2-(dimethylamino)-N-(((3S,6R,8R,9R,10R)-9-(((2S,3R,4S,6R)-4-(dimethylamino)-3-hydroxy-6-methyltetrahydro-2H-pyran-2-yl)oxy)-8-methoxy-4,6,8,10,12,12-hexamethyl-11,13-dioxo-1-oxa-4-azacyclotridecan-3-yl)methyl)-N-methylacetamide] | 4 to 32 (≈ 6.36 to 50.9 µM) | > 32 | 4 to 32 (≈ 6.36 to 50.9 µM) | > 32 | > 32
C=C[C@@H]1COC(=O)C(C)(C)C(=O)[C@H](C)[C@@H](O[C@@H]2O[C@H](C)C[C@H](N(C)C)[C@H]2O)[C@](C)(OC)C[C@@H](C)CN1C [Compound 14, (3R,6R,8R,9R,10R)-9-(((2S,3R,4S,6R)-4-(Dimethylamino)-3-hydroxy-6-methyltetrahydro-2H-pyran-2-yl)oxy)-8-methoxy-4,6,8,10,12,12-hexamethyl-3-vinyl-1-oxa-4-azacyclotridecane-11,13-dione] | 4 to 32 (≈ 7.59 to 60.8 µM) | > 32 | 4 to 32 (≈ 7.59 to 60.8 µM) | > 32 | > 32
CNC[C@H]1COC(=O)C(C)(C)C(=O)[C@H](C)[C@@H](O[C@@H]2O[C@H](C)C[C@H](N(C)C)[C@H]2O)[C@](C)(OC)C[C@@H](C)CN1 [Compound 15, (3S,6R,8R,9R,10R)-9-(((2S,3R,4S,6R)-4-(Dimethylamino)-3-hydroxy-6-methyltetrahydro-2H-pyran-2-yl)oxy)-8-methoxy-6,8,10,12,12-pentamethyl-3-((methylamino)methyl)-1-oxa-4-azacyclotridecane-11,13-dione] | 4 to 32 (≈ 7.55 to 60.4 µM) | > 32 | > 32 | > 32 | > 32
CO[C@]1(C)C[C@@H](C)CN(C)[C@@H](CCCNC(C)C)COC(=O)C(C)(C)C(=O)[C@H](C)[C@H]1O[C@@H]1O[C@H](C)C[C@H](N(C)C)[C@H]1O [Compound 16, (3S,6R,8R,9R,10R)-9-(((2S,3R,4S,6R)-4-(dimethylamino)-3-hydroxy-6-methyltetrahydro-2H-pyran-2-yl)oxy)-3-(3-(isopropylamino)propyl)-8-methoxy-4,6,8,10,12,12-hexamethyl-1-oxa-4-azacyclotridecane-11,13-dione] | < 4 | > 32 | 4 to 32 (≈ 6.67 to 53.3 µM) | > 32 | 4 to 32 (≈ 6.67 to 53.3 µM)
CO[C@]1(C)C[C@@H](C)CN[C@H](CCSC)COC(=O)[C@H](C)C(=O)[C@H](C)[C@H]1O[C@@H]1OC(C)CC(N(C)C)C1O (stereo partly drawn) [Compound 202] | > 32 | > 32 |  | > 32 | > 32
CO[C@]1(C)C[C@@H](C)CN[C@H](CC[S+](C)[O-])COC(=O)[C@H](C)C(=O)[C@H](C)[C@H]1O[C@@H]1OC(C)CC(N(C)C)C1O (stereo partly drawn) [Compound 203] | > 32 | > 32 |  | > 32 | > 32
CO[C@]1(C)C[C@@H](C)CN[C@H](CO)COC(=O)[C@H](C)C(=O)[C@H](C)[C@H]1O[C@@H]1OC(C)CC(N(C)C)C1O (stereo partly drawn) [Compound 204] | > 32 | > 32 |  | > 32 | > 32
CO[C@]1(C)C[C@@H](C)CN[C@@H](Cc2c[nH]cn2)COC(=O)[C@H](C)C(=O)[C@H](C)[C@H]1O[C@@H]1OC(C)CC(N(C)C)C1O (stereo partly drawn) [Compound 205] | > 32 | > 32 |  | > 32 | > 32
CO[C@]1(C)C[C@@H](C)CN[C@@H](C)COC(=O)[C@H](C)C(=O)[C@H](C)[C@H]1O[C@@H]1OC(C)CC(N(C)C)C1O (stereo partly drawn) [Compound 206] | 4 to 32 (≈ 8.22 to 65.8 µM) | > 32 |  | > 32 | > 32
CO[C@]1(C)C[C@@H](C)CN[C@H](C)COC(=O)[C@H](C)C(=O)[C@H](C)[C@H]1O[C@@H]1OC(C)CC(N(C)C)C1O (stereo partly drawn) [Compound 207] | > 32 | > 32 |  | > 32 | > 32
CO[C@]1(C)C[C@@H](C)CN[C@@H](Cc2ccccc2)COC(=O)[C@H](C)C(=O)[C@H](C)[C@H]1O[C@@H]1OC(C)CC(N(C)C)C1O (stereo partly drawn) [Compound 208] | > 32 | > 32 |  | > 32 | 4 to 32 (≈ 7.11 to 56.9 µM)
CO[C@]1(C)C[C@@H](C)CN[C@@H](Cc2ccc(O)cc2)COC(=O)[C@H](C)C(=O)[C@H](C)[C@H]1O[C@@H]1OC(C)CC(N(C)C)C1O (stereo partly drawn) [Compound 209] | > 32 | > 32 |  | > 32 | 4 to 32 (≈ 6.91 to 55.3 µM)
CC[C@H]1OC(=O)[C@H](C)C(=O)[C@H](C)[C@@H](O[C@@H]2OC(C)CC(N(C)C)C2O)[C@](C)(OC)C[C@@H](C)CN[C@H]1C (stereo partly drawn) [Compound 210] | > 32 | > 32 |  | > 32 | > 32
CC[C@H]1OC(=O)[C@H](C)C(=O)[C@H](C)[C@@H](O[C@@H]2OC(C)CC(N(C)C)C2O)[C@](C)(OC)C[C@@H](C)CN(C)[C@H]1C (stereo partly drawn) [Compound 211] | > 32 | > 32 |  | > 32 | > 32
CO[C@]1(C)C[C@@H](C)CNC(CO)(CO)COC(=O)[C@H](C)C(=O)[C@H](C)[C@H]1O[C@@H]1OC(C)CC(N(C)C)C1O (stereo partly drawn) [Compound 212] | > 32 | > 32 |  | > 32 | > 32
C=C[C@@H]1COC(=O)[C@H](C)C(=O)[C@H](C)[C@@H](O[C@@H]2OC(C)CC(N(C)C)C2O)[C@](C)(OC)C[C@@H](C)CN1 (stereo partly drawn) [Compound 213] | > 32 | > 32 |  | > 32 | > 32
CC[C@@H]1COC(=O)[C@H](C)C(=O)[C@H](C)[C@@H](OC2OC(C)CC(N(C)C)C2O)[C@](C)(OC)C[C@@H](C)CN1 (stereo partly drawn) [Compound 215] | > 32 | > 32 |  | > 32 | > 32
CO[C@]1(C)C[C@@H](C)CN[C@H](CNC2COC2)COC(=O)[C@H](C)C(=O)[C@H](C)[C@H]1O[C@@H]1O[C@H](C)C[C@H](N(C)C)[C@H]1O [Compound 216] | 4 to 32 (≈ 7.17 to 57.4 µM) | > 32 |  | > 32 | > 32
CO[C@]1(C)C[C@@H](C)CN[C@H](CNCc2ccc(F)cn2)COC(=O)[C@H](C)C(=O)[C@H](C)[C@H]1O[C@@H]1O[C@H](C)C[C@H](N(C)C)[C@H]1O [Compound 217] | > 32 | > 32 |  | > 32 | > 32
CO[C@]1(C)C[C@@H](C)CN[C@H](Cn2cc(-c3cccc(N)n3)nn2)COC(=O)[C@H](C)C(=O)[C@H](C)[C@H]1O[C@@H]1O[C@H](C)C[C@H](N(C)C)[C@H]1O [Compound 219, (3R,6R,8R,9R,10R)-3-((4-(6-aminopyridin-2-yl)-1H-1,2,3-triazol-1-yl)methyl)-9-(((2S,3R,4S,6R)-4-(dimethylamino)-3-hydroxy-6-methyltetrahydro-2H-pyran-2-yl)oxy)-8-methoxy-6,8,10,12-tetramethyl-1-oxa-4-azacyclotridecane-11,13-dione] | > 32 | > 32 |  | > 32 | > 32
CO[C@]1(C)C[C@@H](C)CN[C@H](CNCCCCCCn2ccnn2)COC(=O)[C@H](C)C(=O)[C@H](C)[C@H]1O[C@@H]1O[C@H](C)C[C@H](N(C)C)[C@H]1O [Compound 220] | > 32 | > 32 |  | > 32 | > 32
CO[C@]1(C)C[C@@H](C)CN[C@H](CN)COC(=O)[C@H](C)C(=O)[C@H](C)[C@H]1O[C@@H]1OC(C)CC(N(C)C)C1O (stereo partly drawn) [Compound 221] |  |  | > 32 |  | > 32
